Results from US9512107B2, “Therapeutically active compositions and their methods of use” (Agios Pharmaceuticals, Inc., priority 2012, dated 2016).
Where a chain is given by its changes, count along the chain named.

Legend:
IDH2 R172K = biological target: T1, IDH2 R172K (Homo sapiens, UniProt P48735, R172K); test: IDH2 R172K enzymatic assay (NADPH cofactor depletion, diaphorase/resazurin readout); format: biochemical; settings: read-out: Enz R172K
T1 sequence (P48735 40-452 R172K): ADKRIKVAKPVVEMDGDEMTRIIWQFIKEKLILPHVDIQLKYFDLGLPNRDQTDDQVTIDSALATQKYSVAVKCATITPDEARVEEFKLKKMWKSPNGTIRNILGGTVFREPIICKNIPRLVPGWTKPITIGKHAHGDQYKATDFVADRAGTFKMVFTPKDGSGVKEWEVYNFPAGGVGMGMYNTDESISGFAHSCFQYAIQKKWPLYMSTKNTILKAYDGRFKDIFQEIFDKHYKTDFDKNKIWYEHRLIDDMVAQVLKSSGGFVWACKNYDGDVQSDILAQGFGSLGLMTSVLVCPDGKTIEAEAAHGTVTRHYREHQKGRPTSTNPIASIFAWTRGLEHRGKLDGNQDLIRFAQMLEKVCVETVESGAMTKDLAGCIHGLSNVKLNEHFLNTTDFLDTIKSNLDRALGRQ
In short: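 Compound was preincubated with IDH2 R172K for 1 h at room temperature, then the reaction was started with substrate mix containing 50 μM NADPH and 6.3 mM α-KG. After another 1 h at room temperature, stop mix with diaphorase and resazurin consumed the remaining NADPH, and resorufin fluorescence was read.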

IDH2 R140Q = biological target: T2, IDH2 R140Q (Homo sapiens, UniProt P48735, R140Q); test: IDH2 R140Q enzymatic assay (cofactor depletion, similar format); format: biochemical; settings: read-out: Enz R140Q
T2 sequence (P48735 40-452 R140Q): T1 sequence (P48735 40-452 R172K) with R101Q, K133R

[1] = tested on: U87MG pLVX-IDH2 R140Q-neo cells; test: U87MG pLVX-IDH2 R140Q-neo cell based assay, 2-HG in media by LC-MS at 48 hours; settings: Homo sapiens, U-87 MG
In short: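 U87MG cells stably expressing IDH2 R140Q were seeded overnight, then exposed to compound at 0.2% final DMSO at 37 °C, 5% CO2. 2-HG in the medium was quantified by LC-MS at 48 h. Growth inhibition was read by CellTiter-Glo luminescence at 72 h.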

Structure (SMILES) | IC50 (IDH2 R172K) [nM] | IC50 (IDH2 R140Q) [nM] | IC50 [1] [nM]
CC(F)(F)c1cccc(-c2nc(NCC3CC3)nc(Nc3cc(F)cc(S(C)(=O)=O)c3)n2)n1 [Compound 612, N2-(cyclopropylmethyl)-6-(6-(1,1-difluoroethyl)pyridin-2-yl)-N4-(3-fluoro-5-(methylsulfonyl)phenyl)-1,3,5-triazine-2,4-diamine] | < 100 | 100 to 1000 | < 100
CC(C)Nc1nc(Nc2cc(F)cc(S(C)(=O)=O)c2)nc(-c2cccc(C(C)(F)F)n2)n1 [Compound 613, 6-(6-(1,1-difluoroethyl)pyridin-2-yl)-N2-(3-fluoro-5-(methylsulfonyl)phenyl)-N4-isopropyl-1,3,5-triazine-2,4-diamine] | < 100 | 100 to 1000 | < 100
CC(C)Nc1nc(Nc2cc(Cl)cc(S(C)(=O)=O)c2)nc(-c2cccc(C(C)(F)F)n2)n1 [Compound 614, N2-(3-chloro-5-(methylsulfonyl)phenyl)-6-(6-(1,1-difluoroethyl)pyridin-2-yl)-N4-isopropyl-1,3,5-triazine-2,4-diamine] | < 100 | 100 to 1000 | < 100
CC(C)(C)Nc1nc(Nc2cc(Cl)cc(S(C)(=O)=O)c2)nc(-c2cccc(C(C)(F)F)n2)n1 [Compound 615, N2-(tert-butyl)-N4-(3-chloro-5-(methylsulfonyl)phenyl)-6-(6-(1,1-difluoroethyl)pyridin-2-yl)-1,3,5-triazine-2,4-diamine] | 100 to 1000 | 100 to 1000 | < 100
CC(C)(C)Nc1nc(Nc2cc(F)cc(S(C)(=O)=O)c2)nc(-c2cccc(C(C)(F)F)n2)n1 [Compound 616, N2-(tert-butyl)-6-(6-(1,1-difluoroethyl)pyridin-2-yl)-N4-(3-fluoro-5-(methylsulfonyl)phenyl)-1,3,5-triazine-2,4-diamine] | < 100 | 100 to 1000 | < 100
N#CC1(c2cc(Nc3nc(NCC4CC4)nc(-c4cccc(C(F)(F)F)n4)n3)ccn2)CC1 [Compound 617, 1-(4-((4-((cyclopropylmethyl)amino)-6-(6-(trifluoromethyl)pyridin-2-yl)-1,3,5-triazin-2-yl)amino)pyridin-2-yl)cyclopropanecarbonitrile] | < 100 | 100 to 1000 | < 100
CC(F)(F)c1cccc(-c2nc(NCC3CC3)nc(Nc3ccnc(C(C)(C)C#N)c3)n2)n1 [Compound 618, (4-((4-((cyclopropylmethyl)amino)-6-(6-(1,1-difluoroethyl)pyridin-2-yl)-1,3,5-triazin-2-yl)amino)pyridin-2-yl)-2-methylpropanenitrile] | < 100 | 100 to 1000 | < 100
CC(F)(F)c1cccc(-c2nc(NCC3CC3)nc(Nc3ccnc(C4(C#N)CC4)c3)n2)n1 [Compound 619, 1-(4-((4-((cyclopropylmethyl)amino)-6-(6-(1,1-difluoroethyl)pyridin-2-yl)-1,3,5-triazin-2-yl)amino)pyridin-2-yl)cyclopropanecarbonitrile] | < 100 | 100 to 1000 | < 100
CC(C)(O)CNc1nc(Nc2cncc(F)c2)nc(-c2ccccc2F)n1 [Compound 621, 1-(4-(2-fluorophenyl)-6-(5-fluoropyridin-3-ylamino)-1,3,5-triazin-2-ylamino)-2-methylpropan-2-ol] | 1000 to 10000 | 100 to 1000 | 100 to 1000
CC(C)(O)CNc1nc(Nc2ccc(F)nc2)nc(-c2ccccc2F)n1 [Compound 622, 1-(4-(2-fluorophenyl)-6-(6-fluoropyridin-3-ylamino)-1,3,5-triazin-2-ylamino)-2-methylpropan-2-ol] | 100 to 1000 | 100 to 1000 | 100 to 1000
CC(C)(O)CNc1nc(Nc2ccnc(F)c2)nc(-c2ccccc2F)n1 [Compound 623, 1-(4-(2-fluorophenyl)-6-(2-fluoropyridin-4-ylamino)-1,3,5-triazin-2-ylamino)-2-methylpropan-2-ol] | 1000 to 10000 | 100 to 1000 | 100 to 1000
COc1cccc(-c2nc(Nc3ccnc(C(F)(F)F)c3)nc(NC3COC3)n2)c1F [Compound 624, 6-(2-Fluoro-3-methoxy-phenyl)-N-oxetan-3-yl-N′-(2-trifluoromethyl-pyridin-4-yl)-[1,3,5]triazine-2,4-diamine] | 100 to 1000 | 100 to 1000 | < 100
Fc1cncc(Nc2nc(NC3COC3)nc(-c3ccccc3F)n2)c1 [Compound 625, 6-(2-Fluoro-phenyl)-N-(5-fluoro-pyridin-3-yl)-N′-oxetan-3-yl-[1,3,5]triazine-2,4-diamine] | 100 to 1000 | < 100 | < 100
Fc1ccc(Nc2nc(NC3COC3)nc(-c3ccccc3F)n2)cn1 [Compound 626, 6-(2-Fluoro-phenyl)-N-(6-fluoro-pyridin-3-yl)-N′-oxetan-3-yl-[1,3,5]triazine-2,4-diamine] | 1000 to 10000 | 100 to 1000 | 100 to 1000
Fc1ccccc1-c1nc(Nc2ccnc(C(F)(F)F)c2)nc(NC2COC2)n1 [Compound 627, 6-(2-Fluoro-phenyl)-N-oxetan-3-yl-N′-(2-trifluoromethyl-pyridin-4-yl)-[1,3,5]triazine-2,4-diamine] | < 100 | < 100 | < 100
Fc1cc(Nc2nc(NC3COC3)nc(-c3ccccc3F)n2)ccn1 [Compound 628, 6-(2-Fluoro-phenyl)-N-(2-fluoro-pyridin-4-yl)-N′-oxetan-3-yl-[1,3,5]triazine-2,4-diamine] | 100 to 1000 | < 100 | < 100
Fc1ccccc1-c1nc(Nc2cncc(C(F)(F)F)c2)nc(NC2COC2)n1 [Compound 629, 6-(2-Fluoro-phenyl)-N-oxetan-3-yl-N′-(5-trifluoromethyl-pyridin-3-yl)-[1,3,5]triazine-2,4-diamine] | < 100 | < 100 | < 100
COc1ccc(F)c(-c2nc(Nc3ccnc(C(F)(F)F)c3)nc(NC(C)C)n2)c1 [Compound 630, 6-(2-Fluoro-5-methoxy-phenyl)-N-isopropyl-N′-(2-trifluoromethyl-pyridin-4-yl)-[1,3,5]triazine-2,4-diamine] | < 100 | < 100 | < 100
COc1cccc(-c2nc(Nc3ccnc(C(F)(F)F)c3)nc(NC(C)C)n2)c1F [Compound 631, 6-(2-Fluoro-3-methoxy-phenyl)-N-isopropyl-N′-(2-trifluoromethyl-pyridin-4-yl)-[1,3,5]triazine-2,4-diamine] | < 100 | < 100 | < 100
CC(C)Nc1nc(Nc2ccnc(C(C)(C)O)c2)nc(-c2ccccc2F)n1 [Compound 632, 2-(4-((4-(2-fluorophenyl)-6-(isopropylamino)-1,3,5-triazin-2-yl)amino)pyridin-2-yl)propan-2-ol] | 100 to 1000 | 100 to 1000 | < 100
CC(C)Nc1nc(Nc2ccnc(C(F)(F)F)c2)nc(-c2cccc(O)c2F)n1 [Compound 633, 2-Fluoro-3-[4-isopropylamino-6-(2-trifluoromethyl-pyridin-4-ylamino)-[1,3,5]triazin-2-yl]-phenol] | < 100 | 100 to 1000 | < 100
CC(C)Nc1nc(Nc2ccnc(C(F)(F)F)c2)nc(-c2cc(O)ccc2F)n1 [Compound 634, 4-Fluoro-3-[4-isopropylamino-6-(2-trifluoromethyl-pyridin-4-ylamino)-[1,3,5]triazin-2-yl]-phenol] | < 100 | 100 to 1000 | < 100
COc1ccc(F)c(-c2nc(Nc3ccnc(C(F)(F)F)c3)nc(NC3COC3)n2)c1 [Compound 635, 6-(2-Fluoro-5-methoxy-phenyl)-N-oxetan-3-yl-N′-(2-trifluoromethyl-pyridin-4-yl)-[1,3,5]triazine-2,4-diamine] | 100 to 1000 | 100 to 1000 | 100 to 1000
Fc1cc(Nc2nc(NC3[C@H]4COC[C@@H]34)nc(-c3ccccc3F)n2)ccn1 (stereo partly drawn) [Compound 636, 6-(2-Fluoro-phenyl)-N-(2-fluoro-pyridin-4-yl)-N′-(3-oxa-bicyclo[3.1.6]hex-6-yl)-[1,3,5]triazine-2,4-diamine] | 100 to 1000 | < 100 | < 100
